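How tested: cells in 96-well plates exposed to compound for 48 hours at five concentrations. GI50 is the concentration that inhibits growth by half. Definition used: TGI = concentration required for complete inhibition of growth.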
Key:
Test in all cases: inhibition of tumour cell growth, NCI panel, 48 h
SK-OV-3 ovarian = test system: SK-OV-3 ovarian
SNB-19 CNS = test system: SNB-19 CNS
SK-MEL-5 melanoma = test system: SK-MEL-5 melanoma
U251 CNS = test system: U251 CNS
SN12C renal = test system: SN12C renal
CAKI-1 renal = test system: CAKI-1 renal
OVCAR-3 ovarian = test system: OVCAR-3 ovarian
A498 renal = test system: A498 renal
EKVX NSCLC = test system: EKVX NSCLC
KM12 colon = test system: KM12 colon

Row | SMILES | TGI (SK-OV-3 ovarian) | TGI (SNB-19 CNS) | TGI (SK-MEL-5 melanoma) | TGI (U251 CNS) | TGI (SN12C renal) | TGI (CAKI-1 renal) | TGI (OVCAR-3 ovarian) | TGI (A498 renal) | TGI (EKVX NSCLC) | TGI (KM12 colon) | GI50 (SK-OV-3 ovarian) | GI50 (SK-MEL-5 melanoma) | GI50 (OVCAR-3 ovarian) | GI50 (KM12 colon)
1 | CCN(CC)CC1CCCCN1CC(=O)N1CC(C)C(=O)Nc2ccccc21 (stereo not given) | > 100 µM | > 100 µM | > 100 µM | > 100 µM | > 100 µM | > 100 µM | > 100 µM | > 100 µM | – | – | – | – | – | –
2 | CC1(C)CC[C@]2(C(=O)O)CC[C@]3(C)[C@H](C(=O)C=C4[C@@]5(C)C=C(C#N)C(=O)C(C)(C)[C@@H]5CC[C@]43C)[C@@H]2C1 | 14.8 µM | 3.64 µM | 1.69 µM | 3.01 µM | 2.97 µM | 3.46 µM | 0.785 µM | 0.977 µM | 9.68 µM | 1.61 µM | – | – | – | –
3 | Clc1cc(Cl)ncn1 | > 100 µM | > 100 µM | > 100 µM | > 100 µM | > 100 µM | > 100 µM | > 100 µM | – | – | > 100 µM | – | – | – | –
4 | COc1cccc(C2c3cc4c(cc3OC(Nc3ccccc3)C2C)OCO4)c1O (stereo not given) | > 71.6 µM | 74 µM | 17.7 µM | 23.2 µM | 27.8 µM | 49.1 µM | 29.9 µM | 23 µM | > 55.9 µM | 24.8 µM | – | – | – | –
5 | CCCCCCCCOc1ccc(/C=C/C2=[N+](CCO)CCO2)cc1 | 11.9 µM | 17.5 µM | 7.04 µM | 8.13 µM | 11.9 µM | 19.7 µM | 28 µM | 11.7 µM | 14.9 µM | 11 µM | – | – | – | –
6 | O=[Se](O)O | 12.8 µM | > 22 µM | 8.68 µM | 2.82 µM | > 100 µM | 97.1 µM | 10.7 µM | > 100 µM | 15.7 µM | > 64.6 µM | – | – | – | –
7 | C=C1CC(C)(c2cccc(Nc3nc4ccccc4c4occc34)c2)OC1=O (stereo not given) | 27.2 µM | 59.4 µM | 28.3 µM | > 100 µM | 7.75 µM | 16.7 µM | 17.5 µM | 32.1 µM | 27.9 µM | 43.8 µM | – | – | – | –
8 | Oc1ccc(-c2nc3ccccc3s2)cc1 | 86 µM | > 100 µM | – | > 100 µM | > 100 µM | 58.3 µM | > 100 µM | > 100 µM | > 100 µM | 38.8 µM | – | – | – | –
9 | [N-]=[N+]=NCC(O)Cn1cnc2c(NC(=O)c3ccccc3)ncnc21 (stereo not given) | – | > 100 µM | > 100 µM | > 100 µM | > 100 µM | > 100 µM | – | > 100 µM | > 100 µM | > 100 µM | – | – | – | –
10 | COc1cc(N(CCC#N)CCC#N)ccc1/C=N\NC(=O)c1ccc(C)cc1 | > 100 µM | > 100 µM | > 100 µM | 30.8 µM | > 100 µM | > 100 µM | > 100 µM | – | > 100 µM | > 100 µM | – | – | – | –
11 | COc1ccc(C(=O)/C=C/c2cc(-c3cc(OC)c(OC)c(OC)c3)n[nH]2)cc1 | 20.5 µM | – | 3.24 µM | – | – | – | 3.56 µM | – | – | 3.06 µM | 3.99 µM | 1.72 µM | 1.74 µM | 1.56 µM

Source: PubChem BioAssay (NCI)
